According to PubChem BioAssay AID248 (DTP/NCI, 2004):
Inconclusive results and toxic doses are left out. No stated cut-off is given here; in the data, active means T/C of 150% or more; inactive means T/C below 125%.

Tested on: L1210 leukemia ip in BDF1 mice, survival T/C
Assay: NCI In Vivo Anticancer Drug Screen. Data for tumor model L1210 Leukemia (intraperitoneal) in B6D2F1 (BDF1) mice
Conditions: endpoint: mean survival time, higher = longer survival
Procedure, shortened: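 Value reflects the ratio of survival in compound-treated mice to survival in vehicle-treated controls, with both groups carrying the same transplanted tumor.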

[1] = dose: 100.0 mg/kg/injection, schedule: Q01DX009 (ip), vehicle: Klucel (hydroxypropylcellulose) (HPC)
[2] = dose: 100.0 mg/kg/injection, schedule: Q04DX003 (ip), vehicle: Klucel (hydroxypropylcellulose) (HPC)
[3] = dose: 200.0 mg/kg/injection, schedule: Q01DX009 (ip), vehicle: Klucel (hydroxypropylcellulose) (HPC)
[4] = dose: 200.0 mg/kg/injection, schedule: Q04DX003 (ip), vehicle: Klucel (hydroxypropylcellulose) (HPC)
[5] = dose: 400.0 mg/kg/injection, schedule: Q04DX003 (ip), vehicle: Klucel (hydroxypropylcellulose) (HPC)
[6] = dose: 100.0 mg/kg/injection, schedule: Q01DX001 (ip), vehicle: saline
[7] = dose: 200.0 mg/kg/injection, schedule: Q01DX001 (ip), vehicle: saline
[8] = dose: 100.0 mg/kg/injection, schedule: Q04DX002 (ip), vehicle: Klucel (hydroxypropylcellulose) (HPC)
[9] = dose: 200.0 mg/kg/injection, schedule: Q04DX002 (ip), vehicle: Klucel (hydroxypropylcellulose) (HPC)
[10] = dose: 400.0 mg/kg/injection, schedule: Q04DX002 (ip), vehicle: Klucel (hydroxypropylcellulose) (HPC)
[11] = dose: 200.0 mg/kg/injection, schedule: Q04DX003 (ip), vehicle: saline with Tween-80
[12] = dose: 400.0 mg/kg/injection, schedule: Q04DX003 (ip), vehicle: saline with Tween-80
[13] = dose: 100.0 mg/kg/injection, schedule: Q04DX003 (ip), vehicle: saline with Tween-80
[14] = dose: 100.0 mg/kg/injection, schedule: Q04DX003 (ip), vehicle: saline
[15] = dose: 200.0 mg/kg/injection, schedule: Q04DX003 (ip), vehicle: saline
[16] = dose: 400.0 mg/kg/injection, schedule: Q01DX009 (ip), vehicle: Klucel (hydroxypropylcellulose) (HPC)

Measured: T/C

C=CCSCC(=O)c1ccccc1
inactive: dose: 50.0 mg/kg/injection, schedule: Q01DX009 (ip), vehicle: Klucel (hydroxypropylcellulose) (HPC) 90 % of control | [1] 94 % of control | [2] 101 % of control | [3] 90 % of control | [4] 97 % of control | [5] 100 % of control

CCN1CCCCCCCCCC(=N/O)/C(=N\O)C1
inactive: dose: 50.0 mg/kg/injection, schedule: Q01DX001 (ip), vehicle: saline 101 % of control | [6] 103 % of control | [7] 95 % of control

c1ccc([Si](c2ccccc2)(c2ccccc2)[Si](c2ccccc2)(c2ccccc2)c2ccccc2)cc1
inactive: dose: 12.5 mg/kg/injection, schedule: Q01DX009 (ip), vehicle: saline 100 % of control | dose: 25.0 mg/kg/injection, schedule: Q01DX009 (ip), vehicle: saline 93 % of control | dose: 50.0 mg/kg/injection, schedule: Q01DX009 (ip), vehicle: saline 93 % of control | [8] 98 % of control | [9] 98 % of control | [10] 87 % of control

O=C1c2ccccc2C(=O)N1CNc1ccccc1/C(=N/O)c1ccccc1
inactive: dose: 87.5 mg/kg/injection, schedule: Q01DX009 (ip), vehicle: Klucel (hydroxypropylcellulose) (HPC) 95 % of control | dose: 175.0 mg/kg/injection, schedule: Q01DX009 (ip), vehicle: Klucel (hydroxypropylcellulose) (HPC) 93 % of control | dose: 350.0 mg/kg/injection, schedule: Q01DX009 (ip), vehicle: Klucel (hydroxypropylcellulose) (HPC) 93 % of control

NS(=O)(=O)c1ccc(N=Nc2ccc(O)c3ncccc23)cc1
inactive: [6] 101 % of control | [7] 98 % of control | dose: 400.0 mg/kg/injection, schedule: Q01DX001 (ip), vehicle: saline 98 % of control

COc1cc(N)ccc1NC(=O)c1ccccc1
inactive: dose: 12.5 mg/kg/injection, schedule: Q01DX001 (ip), vehicle: carboxymethylcellulose (CMC) 117 % of control | dose: 25.0 mg/kg/injection, schedule: Q01DX001 (ip), vehicle: carboxymethylcellulose (CMC) 106 % of control

COc1ccc(/C(C)=N/N=C(\C)c2ccc(OC)cc2)cc1
inactive: [11] 94 % of control | [12] 91 % of control

C[N+](C)(C)CC1(COC(=O)C(O)(c2ccccc2)c2ccccc2)CCC1
inactive: dose: 12.0 mg/kg/injection, schedule: Q01DX001 (ip), vehicle: Klucel (hydroxypropylcellulose) (HPC) 100 % of control | dose: 12.0 mg/kg/injection, schedule: Q04DX003 (ip), vehicle: Klucel (hydroxypropylcellulose) (HPC) 94 % of control | dose: 25.0 mg/kg/injection, schedule: Q01DX001 (ip), vehicle: Klucel (hydroxypropylcellulose) (HPC) 98 % of control | dose: 25.0 mg/kg/injection, schedule: Q04DX003 (ip), vehicle: Klucel (hydroxypropylcellulose) (HPC) 86 % of control | dose: 50.0 mg/kg/injection, schedule: Q01DX001 (ip), vehicle: Klucel (hydroxypropylcellulose) (HPC) 96 % of control | dose: 50.0 mg/kg/injection, schedule: Q04DX003 (ip), vehicle: Klucel (hydroxypropylcellulose) (HPC) 86 % of control

S=C1NC2(CCCCC2)C2=C(CCCC2)S1
inactive: [13] 100 % of control | [11] 88 % of control | [12] 96 % of control

OC(c1ccccc1)c1ccncc1 (configuration not stated)
inactive: dose: 100.0 mg/kg/injection, schedule: Q01DX001 (ip), vehicle: saline with Tween-80 103 % of control | dose: 200.0 mg/kg/injection, schedule: Q01DX001 (ip), vehicle: saline with Tween-80 97 % of control | dose: 400.0 mg/kg/injection, schedule: Q01DX001 (ip), vehicle: saline with Tween-80 103 % of control

CC(=O)Nc1cccc2cccnc12
inactive: dose: 12.5 mg/kg/injection, schedule: Q01DX009 (ip), vehicle: saline with Tween-80 92 % of control | dose: 25.0 mg/kg/injection, schedule: Q01DX009 (ip), vehicle: saline with Tween-80 95 % of control | dose: 50.0 mg/kg/injection, schedule: Q01DX009 (ip), vehicle: saline with Tween-80 90 % of control | dose: 75.0 mg/kg/injection, schedule: Q01DX001 (ip), vehicle: other 104 % of control | dose: 75.0 mg/kg/injection, schedule: Q01DX009 (ip), vehicle: other 98 % of control | dose: 75.0 mg/kg/injection, schedule: Q01DX009 (ip), vehicle: saline with Tween-80 87 % of control | [1] 90 % of control | dose: 100.0 mg/kg/injection, schedule: Q01DX009 (ip), vehicle: saline 93 % of control | [13] 107 % of control | [14] 108 % of control | dose: 150.0 mg/kg/injection, schedule: Q01DX001 (ip), vehicle: other 103 % of control | [3] 93 % of control | dose: 200.0 mg/kg/injection, schedule: Q01DX009 (ip), vehicle: saline 95 % of control | [15] 106 % of control | dose: 300.0 mg/kg/injection, schedule: Q01DX001 (ip), vehicle: other 94 % of control | dose: 400.0 mg/kg/injection, schedule: Q04DX003 (ip), vehicle: saline 89 % of control

Cc1ccc[n+]([O-])c1Cl
inactive: [14] 100 % of control | [15] 87 % of control

c1cc(OCC2CO2)ccc1OCC1CO1 (configuration not stated)
inactive: dose: 100.0 mg/kg/injection, schedule: Q01DX001 (ip), vehicle: other 115 % of control | dose: 200.0 mg/kg/injection, schedule: Q01DX001 (ip), vehicle: other 124 % of control | dose: 400.0 mg/kg/injection, schedule: Q01DX001 (ip), vehicle: other 121 % of control

CC1=C(Br)C(=O)C(C)=C(Br)C1=O
inactive: dose: 25.0 mg/kg/injection, schedule: Q04DX003 (ip), vehicle: other 95 % of control | dose: 50.0 mg/kg/injection, schedule: Q04DX003 (ip), vehicle: other 87 % of control | dose: 100.0 mg/kg/injection, schedule: Q04DX003 (ip), vehicle: other 100 % of control

CCCCCCC(C)CCCCCCCCNCCOC(=O)c1ccc(N)cc1 (configuration not stated)
inactive: dose: 75.0 mg/kg/injection, schedule: Q01DX001 (ip), vehicle: saline 102 % of control | dose: 150.0 mg/kg/injection, schedule: Q01DX001 (ip), vehicle: saline 104 % of control

Cc1ccc(NC(=O)c2ccc(Cl)cc2)cc1
inactive: [1] 95 % of control | [2] 97 % of control | [3] 99 % of control | [4] 103 % of control | [16] 90 % of control | [5] 103 % of control

COc1ccc(C(=O)/C=C2\C(=O)Nc3ccc(Br)cc32)cc1
inactive: [8] 107 % of control | [9] 100 % of control | [10] 93 % of control

[Cu+2].[NH-]C(CCC(N)=O)C(=O)O.[NH-]C(CCC(N)=O)C(=O)O (configuration not stated)
inactive: dose: 6.25 mg/kg/injection, schedule: Q04DX003 (ip), vehicle: saline 96 % of control | dose: 12.5 mg/kg/injection, schedule: Q04DX003 (ip), vehicle: saline 91 % of control | dose: 25.0 mg/kg/injection, schedule: Q04DX003 (ip), vehicle: saline 100 % of control

COc1cc(-c2ccc(-[n+]3nc(-c4ccc([N+](=O)[O-])cc4)nn3-c3ccc([N+](=O)[O-])cc3)c(OC)c2)ccc1-[n+]1nc(-c2ccc([N+](=O)[O-])cc2)nn1-c1ccc([N+](=O)[O-])cc1
inactive: dose: 15.0 mg/kg/injection, schedule: Q01DX001 (ip), vehicle: carboxymethylcellulose (CMC) 89 % of control | dose: 30.0 mg/kg/injection, schedule: Q01DX001 (ip), vehicle: carboxymethylcellulose (CMC) 104 % of control | dose: 60.0 mg/kg/injection, schedule: Q01DX001 (ip), vehicle: carboxymethylcellulose (CMC) 93 % of control

COC(=O)Nc1nc2ccc(Br)cc2[nH]1
inactive: [1] 100 % of control | [2] 92 % of control | [3] 100 % of control | [4] 96 % of control | [16] 109 % of control | [5] 94 % of control

O=[N+]([O-])c1cccc(SNc2cccc(Cl)c2)c1
inactive: dose: 100.0 mg/kg/injection, schedule: Q01DX009 (ip), vehicle: saline with Tween-80 98 % of control | [13] 93 % of control | [11] 95 % of control | [12] 90 % of control

O=C1C(I)=CC(=C(c2cc(I)c(O)c(I)c2)c2ccccc2C(=O)O)C=C1I
inactive: [1] 94 % of control | [2] 98 % of control | [3] 89 % of control | [4] 98 % of control | [16] 98 % of control | [5] 98 % of control

O=C(O)c1cc(=O)c2cccc(Cl)c2[nH]1
inactive: dose: 50.0 mg/kg/injection, schedule: Q04DX002 (ip), vehicle: Klucel (hydroxypropylcellulose) (HPC) 103 % of control | [8] 100 % of control | [9] 96 % of control
